Where no end group is shown, it is not given here.
Key:
[1] = system: E. coli; assay: MIC, E. coli; format: cell-based, Escherichia coli; details: E. coli (ATCC 25922), 18 hours at 37° C.
Excerpt: (§1) To compare the antimicrobial activity among the peptides produced by the method of Example 1, the inventors of the present invention measured the minimal growth inhibitory concentration (MIC), which is minimum concentration of the peptide showing no dissociation of bacterial cells.
(§2) Specifically, the bacterial strain described in the following Table 2 was purchased and cultured to a mid-log phase in each medium with a composition suitable for each strain. Then, after dilution to bacterial cell concentration of 2×10^4 cells/100 μl, the cells were inoculated to a microtiter plate (NUNC, USA). Thereafter, Hp1404-T1, Hp1404-T1a, Hp1404-T1b, Hp1404-T1c, Hp1404-T1d or Hp1404-T1e peptide which has been synthesized in Example 1 above was subjected to serial dilution, ½ times for each, with BSA (bovine serum albumin) solution in a 96-well plate. After adding the cells to a plate, the cells were cultured for 18 hours at 37° C. By using a microtiter plate reader (Merck Elisa reader, Germany), the absorbance was measured at a wavelength of 600 nm to determine the MIC value of each bacterial strain. As a control group, Hp1404 as a mother peptide was used.

[2] = system: L. monocytogenes; assay: MIC, L. monocytogenes; format: cell-based, Listeria monocytogenes; details: L. monocytogenes (KCTC 3710), 18 hours at 37° C.
Excerpt: as §1, §2

[3] = system: S. aureus (ATCC 25923); assay: Anti-biofilm activity (crystal violet); format: cell-based, Staphylococcus aureus; details: 24 hours at 37° C.
Description: To compare the antimicrobial activity among the peptides produced by the method of Example 1, the inventors of the present invention measured the biofilm inhibitory concentration value of the peptide showing no dissociation of bacterial cells.
Specifically, among the bacterial strains described in the above Table 2, bacteria showing favorable biofilm forming were cultured to a mid-log phase in each medium. Then, after dilution to bacterial cell concentration of 5×10^4 cells/100 μl, the cells were inoculated to a microtiter plate (PSL). Thereafter, Hp1404, Hp1404-T1c, Hp1404-T1d or Hp1s404-T1e peptide which has been synthesized in Example 1 above was diluted, 1/10 times for each, with 10 mM sodium phosphate (pH 7.2) solution in a 96-well plate. After adding the cells (10 μl) to a plate, the cells were cultured for 24 hours at 37° C. After removing the supernatant completely, the cells were fixed with 100% methanol for 15 minutes and reacted for 1 hour with Crystal violet staining solution followed by rinsing for 3 times. Then, after dissolving in 95% ethanol, the absorbance was measured at a wavelength of 595 nm by using a microtiter plate reader to determine the biofilm minimal inhibitory concentration value of each bacterial strain.

[4] = system: S. aureus or P. aeruginosa membrane; assay: Flow cytometry with propidium iodide; format: cell-based; details: 2×MIC, 1 hour at 37° C.
Description: Specifically, S. aureus or P. aeruginosa was treated for 1 hour at 37° C. with the mother peptide Hp1404, or Hp1404-T1c, Hp1404-T1d or Hp1404-T1e peptide (at concentration of 2×MIC). After that, the supernatant was removed by centrifuge (10,000 rpm) and stained with propidium iodide (PI, concentration of 10 μg/ml) for 30 minutes at 4° C. Thereafter, unbound propidium iodide was removed by centrifuge, and the problem of cell aggregation phenomenon was solved by adding physiological saline (PBS) in an amount of 1 ml.

[5] = system: Pseudomonas aeruginosa strain 1034; assay: In vivo antimicrobial activity, infected skin wound; parameters: species or system BALB/c mouse; number of colonies from skin tissues: reference not given here; details: intracutaneous
Description: By using Hp1404-T1e found to have the most excellent antimicrobial activity among the peptides that are prepared by the method of Example 1, in vivo antimicrobial activity was measured. Specifically, among the Pseudomonas aeruginosa strains, strain 1034 was selected and tested. The strain was prepared by washing 3 times with PBS buffer. Ciprofloxacin antibiotic was used as a control group. A BALB/c mouse (6 week old) was shaved clean and a wound with pre-determined size was created thereon. Then, the wound site was injected intracutaneously with Pseudomonas aeruginosa strain 1034 ([…], 2×10^5 CFU/ml). After the bacterial infection, the peptide and antibiotic, each prepared at a concentration of 0.1 mg/ml and 0.2 mg/ml, respectively, were intracutaneously injected, and the observation was made everyday. On each day, the skin tissues were sampled and smeared on an NB solid medium. The smeared medium was incubated in an incubator for 18 hours, and the number of grown colonies was counted and expressed in %.

[6] = system: outer membrane of P. aeruginosa; assay: Outer membrane effect (NPN fluorescence); format: cell-based; details: peptide at 1×, 2× or 4×MIC
Description: By using the peptides prepared by the method of Example 1, effect of the peptide on the outer membrane and inner membrane of bacteria was examined. […] However, once the hydrophobic part is exposed as a result of damage occurring in cell wall, NPN emits fluorescence. After culturing each strain in TSB and NB medium, the strain was adjusted such that it has OD600 value of 0.2 in 5 mM HEPES buffer solution. After allowing the reaction to occur between 10 μM NPN dissolved in 95% ethanol and the bacteria by adding them in a 96-well black plate, the peptide at a concentration of 1×, 2× or 4×MIC and 0.1% Triton X-100 were further added, and then the fluorescence was measured.

| Substance | Minimal inhibitory concentration [1] | Minimal inhibitory concentration [2] | Biofilm minimal inhibitory concentration [3] | propidium iodide fluorescence signal shift (membrane damage) [4] | wound healing ([5]; 0.1 mg/ml and 0.2 mg/ml, observed everyday) | number of colonies from skin tissues ([5]; Day 5, 0.1 mg/ml treatment condition) | number of colonies from skin tissues ([5]; Day 5, 0.2 mg/ml treatment condition) | NPN fluorescence (effect on outer membrane) [6] |
| --- | --- | --- | --- | --- | --- | --- | --- | --- |
| ILKKLLKKVKKI-NH2 [Hp1404-T1e] | >25 µM | >25 µM | 12.5 µM | no such shift of fluorescence signal | wound healing effect in peptide concentration-dependent manner | 40% | 20% | – |
| GILGKLWEGVKSIF-NH2 [Hp1404] | 6.25 µM | 3.13 µM | 3.13 µM | bacteria membrane was damaged | – | – | – | increases in treatment concentration-dependent manner |
| ILKKLLKKVKSI-NH2 [Hp1404-T1d] | >25 µM | >25 µM | 6.25 µM | no such shift of fluorescence signal | – | – | – | – |

— patent US11117931B2, “Antimicrobial peptide derived from Hp1404 peptide and uses thereof” (priority 2017, dated 2021)
